For assay [1], the target named is T1, agonist site of the human dopamine D5 receptor (Homo sapiens, UniProt P21918).
T1 construct: expressed in transfected cells; host or cells: GH4 cells (membrane homogenates)
The experiment in a line: Human dopamine D5 receptor (agonist radioligand) binding assay. The note with it: test compound at 1 µmole; 7.5 nM [3H]dopamine; transfected GH4 cells; inhibition of control radioligand specific binding; one single experiment. The source says: (§1) Four illustrative compounds of this invention have each been tested at a concentration of 1 µmole in a series of 6 binding assays for various […], including dopaminic receptors, neuronal nicotinic receptors and muscular nicotinic receptors. Details of each binding assay procedure are given below.
Human dopamine D5 receptor (agonist radioligand):
The purpose is to evaluate the affinity of compounds for the agonist site of the human dopamine D5 receptor in transfected GH4 cells determined in a radioligand binding assay according to Sunahara et al in Nature (1991) 350:614. The experimental protocol is as follows. Cell membrane homogenates (120 µg protein) are incubated for 60 minutes at 22°C with 7.5 nM [^3H]dopamine in the absence or presence of the test compound in a buffer containing 20 mM Tris-HCl (pH 7.4), 5 mM MgCl2, 0.8 mM DTT, 0.3 mM ascorbic acid and 0.1 mM pyrocatechol. Nonspecific binding is determined in the presence of 10 µM SCH 23390. Following incubation, the samples are filtered rapidly under vacuum through glass fiber filters (GF/B, Packard) 55re-soaked with 0.3% PEI and rinsed several times with ice-cold 50 mM Tris-HCl using a 96-sample cell harvester (Unifilter, Packard). The filters are dried then counted for radioactivity in a scintillation counter (Topcount, Packard) using a scintillation cocktail (Microscint 0, Packard). The results are expressed as a percent inhibition of the control radioligand specific binding. The standard reference compound is dopamine, which is tested in each experiment at several concentrations to obtain a competition curve from which its IC50 is calculated, and from which the % inhibition at 1 µM as indicated in the following table is obtained.

Assay [2] addresses human α4β2 neuronal nicotinic receptor (Homo sapiens, UniProt P17787+P43681). The experiment in a line: Neuronal nicotinic receptor (α-BGTX-insensitive) (agonist radioligand) binding assay. To be noted: test compound at 1 µmole; 0.6 nM [3H]cytisine; transfected SH-SY5Y cells; inhibition of control radioligand specific binding; one single experiment; read-out: % inhibition, N neuronal alpha-BGTX-insensitive (alpha4beta 2) (agonist radioligand).
Description: as §1
Neuronal nicotinic receptor (α-BGTX-insensitive) (agonists radioligand):
The purpose is to evaluate the affinity of compounds for the human α4β2 neuronal nicotinic receptor expressed in transfected SH-SY5Y cells, determined in a radioligand binding assay according to Gopalakrishnan et al in J. Pharmacol. Exp. Ther. (1996) 276:289. The experimental protocol is as follows. Cell membrane homogenates (30 µg protein) are incubated for 120 min at 4°C with 0.6 nM [^3H]cytisine in the absence or presence of the test compound in a buffer containing 50 mM Tris-HCl (pH 7.4), 120 mM NaCl, 5 mM KCI, 2.5 mM CaCl2 and 1 mM MgCl2. Nonspecific binding is determined in the presence of 10 µM nicotine bitartrate. Following incubation, the samples are filtered rapidly under vacuum through glass fiber filters (GF/B, Packard) presoaked with 0.3% PEI and rinsed several times with ice-cold 50 mM Tris-HCl using a 96-sample cell harvester (Unifilter, Packard). The filters are dried then counted for radioactivity in a scintillation counter (Topcount, Packard) using a scintillation cocktail (Microscint 0, Packard). The results are expressed as a percent inhibition of the control radioligand specific binding. The standard reference compound is nicotine bitartrate, which is tested in each experiment at several concentrations to obtain a competition curve from which its IC50 is calculated, and from which the % inhibition at 1 µM as indicated in the following table is obtained.

The target in assay [3] is human α7 neuronal nicotinic receptor (Homo sapiens, UniProt P36544). The experiment in a line: biochemical. The assay is classed as binding. The note with it: read-out: % inhibition, N neuronal alpha -BGTX-sensitive (alpha 7) (antagonist radioligand).
The target of assay [4] is human muscle-type nicotinic receptor (Homo sapiens, UniProt P02708+P07510+Q07001). The experiment in a line: biochemical. The assay is classed as binding. To be noted: read-out: % inhibition, N muscle-type (h) (antagonist radioligand).
Assay [5] concerns the target T2, human dopamine D1 receptor (Homo sapiens, UniProt P21728).
T2 construct: expressed in transfected cells; host or cells: CHO cells (membrane homogenates)
Nature of the assay: Human dopamine D1 receptor (antagonist radioligand) binding assay. The note with it: test compound at 1 µmole; 0.3 nM [3H]SCH 23390; transfected CHO cells; inhibition of control radioligand specific binding; one single experiment.
Description: as §1
Human dopamine D1 receptor (antagonist radioligand):
The purpose is to evaluate the affinity of compounds for the human dopamine D1 receptor in transfected CHO cells determined in a radioligand binding assay according to Zhou et al in Nature (1990) 347:76. The experimental protocol is as follows. Cell membrane homogenates (48 µg protein) are incubated for 60 minutes at 22°C with 0.3 nM [^3H]SCH 23390 in the absence or presence of the test compound in a buffer containing 50 mM Tris-HCl (pH 7.4), 5 mM KCI, 5 mM MgCl2, 1.5 mM CaCl2 and 5 mM EDTA. Non-specific binding is determined in the presence of 1 µM SCH 23390. […] The filters are dried then counted for radioactivity in a scintillation counter (Topcount, Packard) using a scintillation cocktail (Microscint 0, Packard). The results are expressed as a percent inhibition of the control radioligand specific binding. […]

Assay [6] concerns the target T3, Human dopamine D5 receptor (Homo sapiens, UniProt P21918).
T3 construct: expressed in transfected cells; host or cells: GH4 cells (membrane homogenates)
Nature of the assay: Human dopamine D5 receptor (antagonist radioligand) binding assay. The note with it: test compound at 1 µmole; 0.3 nM [3H]SCH 23390; transfected GH4 cells; inhibition of control radioligand specific binding; one single experiment.
Description: as §1
Human dopamine D5 receptor (antagonist radioligand):
The purpose is to evaluate the affinity of compounds for the human dopamine […] in transfected GH4 cells determined in a radioligand binding assay according to Sunahara et al in Nature (1991) 350:614. The experimental protocol is as follows. Cell membrane homogenates (20 µg protein) are incubated for 60 minutes at 22°C with 0.3 nM [^3H]SCH 23390 in the absence or presence of the test compound in a buffer containing 50 mM Tris-HCl (pH 7.4), 120 mM NaCl, 5 mM KCI, 5 mM MgCl2 and 1 mM EDTA. Nonspecific binding is determined in the presence of 10 µM SCH 23390. […] The filters are dried then counted for radioactivity in a scintillation counter (Topcount, Packard) using a scintillation cocktail (Microscint 0, Packard). The results are expressed as a percent inhibition of the control radioligand specific binding. […]

The conditions of assay [7]: relative to morphine; background statement; cited from earlier work.

Sequence of human muscle-type nicotinic receptor (P02708 21-457): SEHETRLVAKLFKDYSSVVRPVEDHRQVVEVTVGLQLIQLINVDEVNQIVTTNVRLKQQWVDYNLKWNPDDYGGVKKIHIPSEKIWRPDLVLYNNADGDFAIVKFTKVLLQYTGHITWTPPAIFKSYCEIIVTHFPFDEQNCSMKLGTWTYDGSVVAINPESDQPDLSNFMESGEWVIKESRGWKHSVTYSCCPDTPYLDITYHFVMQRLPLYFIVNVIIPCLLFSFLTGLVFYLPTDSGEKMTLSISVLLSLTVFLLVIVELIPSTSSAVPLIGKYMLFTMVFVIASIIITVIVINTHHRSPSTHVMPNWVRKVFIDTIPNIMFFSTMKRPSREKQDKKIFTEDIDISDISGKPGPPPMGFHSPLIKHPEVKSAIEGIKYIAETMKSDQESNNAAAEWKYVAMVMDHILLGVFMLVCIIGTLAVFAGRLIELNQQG
Sequence of human muscle-type nicotinic receptor (P07510 23-517): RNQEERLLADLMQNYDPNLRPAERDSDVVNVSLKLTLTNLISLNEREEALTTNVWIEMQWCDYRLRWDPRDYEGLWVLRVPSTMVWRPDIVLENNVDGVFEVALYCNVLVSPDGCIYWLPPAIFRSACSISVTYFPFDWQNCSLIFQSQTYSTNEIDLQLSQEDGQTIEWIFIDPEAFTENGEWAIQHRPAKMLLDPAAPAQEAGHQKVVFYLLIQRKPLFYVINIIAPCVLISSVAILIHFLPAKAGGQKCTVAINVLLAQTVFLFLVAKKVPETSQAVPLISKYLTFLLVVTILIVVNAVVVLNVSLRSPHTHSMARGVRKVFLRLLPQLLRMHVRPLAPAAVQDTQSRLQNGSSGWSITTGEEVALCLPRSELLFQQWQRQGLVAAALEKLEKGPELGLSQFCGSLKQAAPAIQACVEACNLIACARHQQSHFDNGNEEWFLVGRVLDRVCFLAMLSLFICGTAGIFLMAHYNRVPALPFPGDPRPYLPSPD
Sequence of human muscle-type nicotinic receptor (P11230 24-501, further chain): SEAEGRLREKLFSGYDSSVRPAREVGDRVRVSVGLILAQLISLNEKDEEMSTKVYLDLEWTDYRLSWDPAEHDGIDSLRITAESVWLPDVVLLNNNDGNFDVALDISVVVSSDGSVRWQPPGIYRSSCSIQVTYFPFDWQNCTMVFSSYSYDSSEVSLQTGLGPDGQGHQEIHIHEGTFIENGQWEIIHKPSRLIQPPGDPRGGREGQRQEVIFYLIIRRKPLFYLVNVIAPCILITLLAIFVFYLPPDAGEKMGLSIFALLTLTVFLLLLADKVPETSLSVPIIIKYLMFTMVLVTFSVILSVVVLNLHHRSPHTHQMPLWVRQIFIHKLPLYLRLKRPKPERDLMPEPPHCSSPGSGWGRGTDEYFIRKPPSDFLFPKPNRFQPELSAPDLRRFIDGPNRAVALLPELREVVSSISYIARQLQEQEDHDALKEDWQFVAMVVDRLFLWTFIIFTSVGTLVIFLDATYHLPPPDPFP
Sequence of human muscle-type nicotinic receptor (Q07001 22-517): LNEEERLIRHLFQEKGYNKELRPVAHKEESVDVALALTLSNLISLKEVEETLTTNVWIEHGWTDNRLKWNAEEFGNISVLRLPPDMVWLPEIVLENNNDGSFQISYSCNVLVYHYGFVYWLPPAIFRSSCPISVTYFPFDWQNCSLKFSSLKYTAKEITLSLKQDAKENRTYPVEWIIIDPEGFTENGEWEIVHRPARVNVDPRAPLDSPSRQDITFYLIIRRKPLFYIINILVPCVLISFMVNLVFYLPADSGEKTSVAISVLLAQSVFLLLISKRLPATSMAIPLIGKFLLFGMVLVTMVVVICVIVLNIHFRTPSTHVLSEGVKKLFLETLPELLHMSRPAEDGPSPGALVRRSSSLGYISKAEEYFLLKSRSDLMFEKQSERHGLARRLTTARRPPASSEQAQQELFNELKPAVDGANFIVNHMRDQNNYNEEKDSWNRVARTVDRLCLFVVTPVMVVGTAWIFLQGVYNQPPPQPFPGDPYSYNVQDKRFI
Sequence of human α4β2 neuronal nicotinic receptor (P43681 29-627 limits assumed): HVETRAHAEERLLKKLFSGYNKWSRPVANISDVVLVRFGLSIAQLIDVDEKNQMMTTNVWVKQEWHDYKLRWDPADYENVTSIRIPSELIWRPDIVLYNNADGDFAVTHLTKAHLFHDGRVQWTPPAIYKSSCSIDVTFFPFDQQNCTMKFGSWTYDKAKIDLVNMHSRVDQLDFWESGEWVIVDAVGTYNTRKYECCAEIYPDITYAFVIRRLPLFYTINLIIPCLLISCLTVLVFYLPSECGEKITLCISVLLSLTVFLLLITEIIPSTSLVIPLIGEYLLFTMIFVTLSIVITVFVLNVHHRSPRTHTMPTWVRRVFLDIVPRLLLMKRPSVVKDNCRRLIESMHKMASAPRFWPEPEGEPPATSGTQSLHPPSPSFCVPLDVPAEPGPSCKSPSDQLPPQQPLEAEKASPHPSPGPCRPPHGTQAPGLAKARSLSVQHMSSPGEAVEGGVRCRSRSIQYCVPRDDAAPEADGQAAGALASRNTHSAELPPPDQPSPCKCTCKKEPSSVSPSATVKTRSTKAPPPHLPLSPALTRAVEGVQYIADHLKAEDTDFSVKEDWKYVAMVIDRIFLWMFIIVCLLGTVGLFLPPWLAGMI
Sequence of human α4β2 neuronal nicotinic receptor (P17787 26-502): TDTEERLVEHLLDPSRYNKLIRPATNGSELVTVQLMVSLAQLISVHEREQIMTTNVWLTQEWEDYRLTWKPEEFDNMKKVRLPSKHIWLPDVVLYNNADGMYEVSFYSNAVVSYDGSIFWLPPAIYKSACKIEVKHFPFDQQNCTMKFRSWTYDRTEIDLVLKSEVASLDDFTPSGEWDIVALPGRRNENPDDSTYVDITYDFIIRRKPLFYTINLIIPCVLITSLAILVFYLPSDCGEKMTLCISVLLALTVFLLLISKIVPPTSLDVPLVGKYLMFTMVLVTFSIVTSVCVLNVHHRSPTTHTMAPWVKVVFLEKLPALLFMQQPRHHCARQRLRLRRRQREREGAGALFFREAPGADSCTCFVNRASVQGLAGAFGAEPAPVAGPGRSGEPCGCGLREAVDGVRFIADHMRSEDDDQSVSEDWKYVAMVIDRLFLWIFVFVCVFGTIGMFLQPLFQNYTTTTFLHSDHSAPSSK
T1 sequence (P21918 whole entry): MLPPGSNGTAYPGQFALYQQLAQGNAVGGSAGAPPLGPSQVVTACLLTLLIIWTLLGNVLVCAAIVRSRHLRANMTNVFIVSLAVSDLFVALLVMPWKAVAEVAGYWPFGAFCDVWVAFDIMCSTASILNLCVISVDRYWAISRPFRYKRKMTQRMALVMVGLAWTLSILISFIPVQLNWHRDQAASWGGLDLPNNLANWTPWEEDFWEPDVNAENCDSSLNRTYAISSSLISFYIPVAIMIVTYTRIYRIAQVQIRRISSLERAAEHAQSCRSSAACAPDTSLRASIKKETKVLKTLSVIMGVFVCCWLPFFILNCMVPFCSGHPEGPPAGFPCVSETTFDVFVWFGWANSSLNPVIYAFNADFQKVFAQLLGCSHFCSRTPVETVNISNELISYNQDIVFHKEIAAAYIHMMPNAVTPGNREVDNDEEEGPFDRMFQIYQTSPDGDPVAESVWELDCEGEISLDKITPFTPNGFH
Sequence of human α7 neuronal nicotinic receptor (P36544 23-502): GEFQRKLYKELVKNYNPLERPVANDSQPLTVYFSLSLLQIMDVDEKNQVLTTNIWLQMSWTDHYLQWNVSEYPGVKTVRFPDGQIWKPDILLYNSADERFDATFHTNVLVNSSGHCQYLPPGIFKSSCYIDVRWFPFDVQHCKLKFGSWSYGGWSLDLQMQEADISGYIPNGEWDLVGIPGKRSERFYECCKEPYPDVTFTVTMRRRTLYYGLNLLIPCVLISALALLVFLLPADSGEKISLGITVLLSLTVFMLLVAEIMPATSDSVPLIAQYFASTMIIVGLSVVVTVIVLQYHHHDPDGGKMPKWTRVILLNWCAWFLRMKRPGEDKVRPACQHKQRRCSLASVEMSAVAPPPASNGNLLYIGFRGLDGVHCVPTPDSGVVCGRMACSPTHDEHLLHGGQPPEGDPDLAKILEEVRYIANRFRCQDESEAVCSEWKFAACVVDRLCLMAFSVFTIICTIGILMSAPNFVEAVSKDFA
T2 sequence (P21728 whole entry): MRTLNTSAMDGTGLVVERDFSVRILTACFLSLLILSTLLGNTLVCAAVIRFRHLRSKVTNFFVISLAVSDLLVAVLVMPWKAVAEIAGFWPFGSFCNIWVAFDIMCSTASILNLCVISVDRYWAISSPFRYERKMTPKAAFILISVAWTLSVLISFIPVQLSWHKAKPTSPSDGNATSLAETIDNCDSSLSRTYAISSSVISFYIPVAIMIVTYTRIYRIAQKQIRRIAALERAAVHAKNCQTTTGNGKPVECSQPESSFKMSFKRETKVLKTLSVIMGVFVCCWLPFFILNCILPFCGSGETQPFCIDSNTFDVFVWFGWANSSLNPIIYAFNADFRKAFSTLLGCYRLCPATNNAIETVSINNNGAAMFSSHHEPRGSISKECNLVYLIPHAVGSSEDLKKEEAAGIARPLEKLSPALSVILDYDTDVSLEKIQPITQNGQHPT
T3 sequence (P21918 whole entry): as the sequence (P21918 whole entry) above

As for `CCN1CCC2CC1(C(=O)c1ccc(Cl)nc1)C2` [Comp.9m], the values for the inhibition at 1 µM in assay [1] and in assay [2] were -13% and 4%, respectively. Further, the inhibition (usually the relative decrease from the control value, in per cent) at 50 pM in assay [3] is -1%. Also, the inhibition at 0.0005 µM in assay [4] was -8%.

Turning to `OC(c1cccnc1)C12CC(CCN1)C2` (stereo not drawn) [Comp.11], the inhibition at 50 pM in assay [3] was -1%. Moreover, the inhibition at 0.0005 µM in assay [4] stood at 17%.

Regarding `CCN1CCC2CC1(C(O)c1cccnc1)C2` (stereo not drawn) [Comp.19a], the inhibition at 1 µM in assay [1] is -2%; in assay [2], 24%; in assay [5] it was 9%. In addition, in assay [3], the inhibition at 50 pM turned out to be 3%. Further, the inhibition at 0.0005 µM in assay [4] amounted to 33%.

For the compound `NCC12CC(CCN1Cc1ccccn1)C2` [Comp.20], the inhibition at 1 µM in assay [1] is 6%; in assay [2], 11%; in assay [5] it was -3%; in assay [6] it was 31%. For the same compound, in assay [3], the inhibition at 50 pM stood at 12%. In addition, in assay [4], the inhibition at 0.0005 µM worked out at 32%.

Regarding `Clc1ccc(C2CC3CCC2N3)cn1` (stereo not drawn) [epibatidine], in assay [7], the “analgesic potency, higher than that of morphine” value is recorded as “about 200 fold”.

Source of the values: patent EP2496579B1 (priority 2009, dated 2011).
